Laboratory results: patent US9187471B2, “Pyrido [4,3-b] indole and pyrido [3,4-b] indole derivatives and methods of use” (Medivation Technologies, Inc., priority 2010, dated 2015)

Columns and labels:
[1] = target: T1, human recombinant serotonin (5-Hydroxytryptamine) 5-HT5A receptor (Homo sapiens, UniProt P47898); experiment: Serotonin 5-HT5A radioligand binding ([3H]LSD); settings: compound at 0.1 μM; read-out: Inhibition of ligand binding, Serotonin 5-HT5A (percent inhibition of specific binding)
T1 construct: expressed in transfected cells; host or cells: CHO-K1
Method: Compounds of the invention were incubated with 1.7 nM [^3H]Lysergic acid diethylamide (LSD) for 60 min at 37° C. […] Receptor proteins were filtered and washed, the filters were counted to determine [^3H]LSD specifically bound.

[2] = target: T2, rat adrenergic α1A receptor (Rattus norvegicus, UniProt P43140); experiment: Adrenergic α1A radioligand binding ([3H]Prazosin); settings: read-out: Adrenergic (0.1 μM) a1A, percent inhibition of specific binding; compound at 0.1 μM; 0.25 nM [3H]Prazosin
T2 construct: rat adrenergic α1A receptor obtained from Wistar Rat submaxillary glands; from tissue; host or cells: Wistar rat submaxillary glands
T2 sequence (P43140 1-466): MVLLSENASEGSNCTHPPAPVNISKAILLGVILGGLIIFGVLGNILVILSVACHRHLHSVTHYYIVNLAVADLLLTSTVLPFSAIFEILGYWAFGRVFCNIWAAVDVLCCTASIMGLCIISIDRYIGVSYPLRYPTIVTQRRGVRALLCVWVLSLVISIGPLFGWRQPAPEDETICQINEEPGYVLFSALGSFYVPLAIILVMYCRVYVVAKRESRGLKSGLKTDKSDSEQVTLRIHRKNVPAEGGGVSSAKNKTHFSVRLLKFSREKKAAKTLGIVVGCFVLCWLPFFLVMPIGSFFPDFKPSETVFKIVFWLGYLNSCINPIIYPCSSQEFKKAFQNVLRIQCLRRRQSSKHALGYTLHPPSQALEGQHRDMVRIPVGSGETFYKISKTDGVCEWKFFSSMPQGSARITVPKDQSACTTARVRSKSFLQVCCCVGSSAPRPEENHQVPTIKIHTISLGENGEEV
Procedure, shortened: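 Wistar rat submaxillary gland receptor in 50 mM Tris-HCl pH 7.4 with 0.5 mM EDTA, incubated with compound and 0.25 nM [3H]Prazosin for 60 min at 25 °C.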

[3] = target: T3, human recombinant serotonin (5-Hydroxytryptamine) 5-HT6 receptor (Homo sapiens, UniProt P50406); experiment: Serotonin 5-HT6 radioligand binding ([3H]LSD); settings: compound at 0.1 μM; read-out: Inhibition of ligand binding, Serotonin 5-HT6 (percent inhibition of specific binding)
T3 construct: expressed in transfected cells; host or cells: HeLa
Description: Receptor proteins were filtered and washed, the filters were then counted to determine [3H]LSD specifically bound.

[4] = target: T4, human recombinant dopamine D2L receptor (Homo sapiens, UniProt P14416); experiment: Dopamine D2L radioligand binding ([3H]Spiperone); settings: 0.16 nM [3H]Spiperone; for inhibition at 1 µM: read-out: Dopamine D2L (1 μM), percent inhibition of specific binding, compound at 1 μM
T4 construct: expressed in transfected cells; host or cells: CHO
Method: Non-specific binding was estimated in the presence of 10 μM Haloperidol. Receptor proteins were filtered and washed, the filters were then counted to determine [^3H]Spiperone specifically bound.

[5] = target: T5, human recombinant histamine H1 receptor (Homo sapiens, UniProt P35367); experiment: Histamine H1 radioligand binding ([3H]Pyrilamine); settings: read-out: Histamine H1 Binding (1 μM), percent inhibition of specific binding; compound at 1 μM; 1.2 nM [3H]Pyrilamine
T5 construct: expressed in transfected cells; host or cells: CHO-K1
Procedure, shortened: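 Human recombinant H1 receptor expressed in CHO-K1 cells, in 50 mM Tris-HCl pH 7.4 with 2 mM MgCl2, 100 mM NaCl, 250 mM sucrose. Non-specific binding defined with 1 μM pyrilamine; bound [3H]pyrilamine counted after filtration and washing. Values are percent inhibition of specific binding.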

[6] = target: T6, human recombinant serotonin (5-Hydroxytryptamine) 5-HT7 receptor (Homo sapiens, UniProt P34969); experiment: Serotonin 5-HT7 radioligand binding ([3H]LSD); settings: compound at 0.1 μM; read-out: Inhibition of ligand binding, Serotonin 5-HT7 (percent inhibition of specific binding)
T6 construct: expressed in transfected cells; host or cells: CHO
Method: Lysergic acid diethylamide (LSD) for 120 min. at 25° C. […] Receptor proteins were filtered and washed, the filters were then counted to determine [^3H]LSD specifically bound.

[7] = target: T7, human recombinant adrenergic α2C receptor (Homo sapiens, UniProt P18825); experiment: Adrenergic α2C radioligand binding ([3H]MK-912); settings: read-out: Adrenergic (0.1 μM) a2C, percent inhibition of specific binding; compound at 0.1 μM; 1 nM [3H]MK-912
T7 construct: expressed in transfected cells; host or cells: insect Sf9 cells
T7 sequence (P18825 1-462): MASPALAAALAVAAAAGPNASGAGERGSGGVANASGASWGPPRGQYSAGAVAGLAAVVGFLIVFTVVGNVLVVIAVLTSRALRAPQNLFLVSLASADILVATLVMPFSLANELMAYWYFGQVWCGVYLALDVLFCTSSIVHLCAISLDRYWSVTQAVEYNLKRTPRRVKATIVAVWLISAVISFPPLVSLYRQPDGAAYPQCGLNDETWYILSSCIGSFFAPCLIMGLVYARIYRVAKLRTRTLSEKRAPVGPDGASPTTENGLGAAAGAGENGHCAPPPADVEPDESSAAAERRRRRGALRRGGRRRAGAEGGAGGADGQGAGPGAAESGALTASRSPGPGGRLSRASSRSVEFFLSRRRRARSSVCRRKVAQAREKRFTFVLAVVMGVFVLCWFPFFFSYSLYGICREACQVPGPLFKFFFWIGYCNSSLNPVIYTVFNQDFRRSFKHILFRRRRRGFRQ
Procedure, shortened: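 Membranes from Sf9 cells expressing the human receptor, in 50 mM Tris-HCl pH 7.4 with 12.5 mM MgCl2 and 2 mM EDTA, incubated with compound and 1 nM [3H]MK-912 for 60 min at 25 °C. Non-specific binding defined with 10 μM WB-4101. Filter-bound radioactivity counted; percent inhibition of specific binding reported.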

T1 sequence (P47898 whole entry): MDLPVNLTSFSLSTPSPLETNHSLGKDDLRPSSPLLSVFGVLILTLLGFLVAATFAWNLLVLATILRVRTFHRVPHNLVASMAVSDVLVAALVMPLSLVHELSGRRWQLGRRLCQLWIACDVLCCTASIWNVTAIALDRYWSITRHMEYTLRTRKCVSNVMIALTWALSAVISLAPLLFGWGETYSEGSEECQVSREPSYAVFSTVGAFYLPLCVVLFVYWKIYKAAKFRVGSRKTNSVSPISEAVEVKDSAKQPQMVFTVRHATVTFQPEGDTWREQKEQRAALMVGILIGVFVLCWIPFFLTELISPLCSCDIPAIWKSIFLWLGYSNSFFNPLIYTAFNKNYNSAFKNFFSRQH
T6 sequence (P34969 whole entry): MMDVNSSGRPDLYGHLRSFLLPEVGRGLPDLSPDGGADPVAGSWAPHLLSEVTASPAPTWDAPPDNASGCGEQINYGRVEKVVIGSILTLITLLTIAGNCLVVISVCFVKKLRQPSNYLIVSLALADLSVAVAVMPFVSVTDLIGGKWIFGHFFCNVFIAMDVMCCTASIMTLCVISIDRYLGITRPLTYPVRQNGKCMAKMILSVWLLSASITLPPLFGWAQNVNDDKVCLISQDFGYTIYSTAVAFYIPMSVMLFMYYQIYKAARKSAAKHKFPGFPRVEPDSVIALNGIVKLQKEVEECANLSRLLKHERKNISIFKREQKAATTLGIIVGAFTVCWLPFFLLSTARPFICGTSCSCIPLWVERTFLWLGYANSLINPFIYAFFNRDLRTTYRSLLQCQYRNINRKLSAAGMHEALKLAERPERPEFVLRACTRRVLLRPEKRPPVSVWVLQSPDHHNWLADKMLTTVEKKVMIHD
T3 sequence (P50406 whole entry): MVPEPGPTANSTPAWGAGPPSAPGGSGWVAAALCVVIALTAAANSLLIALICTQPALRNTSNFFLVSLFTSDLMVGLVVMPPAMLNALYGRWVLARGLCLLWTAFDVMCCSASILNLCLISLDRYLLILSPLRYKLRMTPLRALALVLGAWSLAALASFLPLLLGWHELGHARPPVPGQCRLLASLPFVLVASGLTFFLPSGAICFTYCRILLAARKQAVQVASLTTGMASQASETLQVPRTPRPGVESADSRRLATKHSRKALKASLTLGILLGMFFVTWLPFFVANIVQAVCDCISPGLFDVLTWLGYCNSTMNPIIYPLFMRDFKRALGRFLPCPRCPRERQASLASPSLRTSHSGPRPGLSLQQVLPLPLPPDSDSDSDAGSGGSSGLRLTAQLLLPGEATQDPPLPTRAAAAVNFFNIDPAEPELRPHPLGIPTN
T4 sequence (P14416 whole entry): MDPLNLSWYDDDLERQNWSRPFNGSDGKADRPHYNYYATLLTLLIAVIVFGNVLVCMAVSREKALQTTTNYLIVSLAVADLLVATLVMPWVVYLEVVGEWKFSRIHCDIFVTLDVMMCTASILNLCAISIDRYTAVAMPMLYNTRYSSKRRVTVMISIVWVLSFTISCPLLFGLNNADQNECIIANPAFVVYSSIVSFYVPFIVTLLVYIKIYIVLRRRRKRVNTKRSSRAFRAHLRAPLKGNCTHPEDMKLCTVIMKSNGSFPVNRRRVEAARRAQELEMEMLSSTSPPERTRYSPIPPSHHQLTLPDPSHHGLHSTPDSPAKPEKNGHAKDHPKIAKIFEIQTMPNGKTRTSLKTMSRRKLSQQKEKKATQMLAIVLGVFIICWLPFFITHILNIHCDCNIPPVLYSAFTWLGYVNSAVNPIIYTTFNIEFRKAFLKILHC
T5 sequence (P35367 whole entry): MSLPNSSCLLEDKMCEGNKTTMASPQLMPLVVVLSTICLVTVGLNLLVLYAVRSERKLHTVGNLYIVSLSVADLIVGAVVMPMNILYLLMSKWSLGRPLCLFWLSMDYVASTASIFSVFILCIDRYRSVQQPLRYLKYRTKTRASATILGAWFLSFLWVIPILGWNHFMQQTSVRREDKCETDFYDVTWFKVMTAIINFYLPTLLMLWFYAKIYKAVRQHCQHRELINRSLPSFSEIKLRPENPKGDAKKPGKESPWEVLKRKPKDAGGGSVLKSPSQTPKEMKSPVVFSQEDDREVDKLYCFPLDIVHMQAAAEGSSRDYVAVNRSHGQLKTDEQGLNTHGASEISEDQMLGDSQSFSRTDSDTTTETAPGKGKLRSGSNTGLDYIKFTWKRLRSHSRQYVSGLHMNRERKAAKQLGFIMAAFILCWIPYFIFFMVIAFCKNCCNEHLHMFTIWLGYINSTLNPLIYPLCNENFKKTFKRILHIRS

Row | SMILES | inhibition at 0.1 µM [1] [%] | inhibition at 0.1 µM [2] [%] | inhibition at 0.1 µM [3] [%] | inhibition at 1 µM [4] [%] | inhibition at 1 µM [5] [%] | inhibition at 0.1 µM [6] [%] | inhibition at 0.1 µM [7] [%] | inhibition at 0.1 µM ([4]; read-out: Dopamine D2L (0.1 μM), percent inhibition of specific binding, compound at 0.1 μM) [%]
1 | Cc1ccc2c(c1)c1c(n2-c2cscc2-c2ccc(C)s2)CCN(C)C1 [Compound No. 79] | 93 | 79 | 50 | 30 | 61 | 98 | 77 | 
2 | Cc1ccc2c(c1)c1c(n2-c2ccc3c(c2)CCN(C=O)C3)CCN(C)C1 [Compound No. 77, 6-(2,8-dimethyl-1,2,3,4-tetrahydro-pyrido[4,3-b]indol-5-yl)-3,4-dihydro-1H-isoquinoline-2-carbaldehyde] | 21 | 20 | 5 | 14 | 35 | 35 | 0 | 
3 | Cc1ccc2c(c1)c1c(n2-c2ccc(-c3ccc(F)cc3)cn2)CCN(C)C1 [Compound No. 140, 5-(5-(4-fluorophenyl)pyridin-2-yl)-2,8-dimethyl-2,3,4,5-tetrahydro-1H-pyrido[4,3-b]indole] | 52 | 31 | 41 | -4 | 10 | 41 | 53 | 
4 | Cc1ccc2c(c1)c1c(n2-c2cccc(-c3ccc(S(N)(=O)=O)cc3)c2)CCN(C)C1 [Compound No. 158, 3′-(2,8-dimethyl-3,4-dihydro-1H-pyrido[4,3-b]indol-5(2H)-yl)biphenyl-4-sulfonamide] | 62 | 4 | 14 |  | 1 | 26 | 0 | 1
5 | Cc1ccc2c(c1)c1c(n2-c2cccc(-c3cnc(N(C)C)nc3)c2)CCN(C)C1 [Compound 42, 5-(3-(2,8-dimethyl-3,4-dihydro-1H-pyrido[4,3-b]indol-5(2H)-yl)phenyl)-N,N-dimethylpyrimidin-2-amine] | 11 | 9 | 17 | 17 | 0 | 31 | -11 | 
6 | Cc1ccc2c(c1)c1c(n2-c2cccc(-c3ccc4[nH]cnc4c3)c2)CCN(C)C1 [Compound 54, 5-(3-(1H-benzo[d]imidazol-5-yl)phenyl)-2,8-dimethyl-2,3,4,5-tetrahydro-1H-pyrido[4,3-b]indole] | 33 | -7 | 25 | 22 | 40 | 26 | 12 | 
7 | Cc1ccc2c(c1)c1c(n2-c2cccc3ccncc23)CCN(C)C1 [Compound 58, 5-(isoquinolin-8-yl)-2,8-dimethyl-2,3,4,5-tetrahydro-1H-pyrido[4,3-b]indole] | 33 | 3 | 21 | 11 | 31 | 69 | -1 | 
8 | Cc1ccc2c(c1)c1c(n2-c2cscc2-c2ccc(O)nc2)CCN(C)C1 [Compound 49] | 52 | 15 | 6 | 1 | 7 | 86 | -10 | 
